Laboratory results published in publication PMC3961306, “Comparison of the Cancer Gene Targeting and Biochemical Selectivities of All Targeted Kinase Inhibitors Approved for Clinical Use” (PLoS ONE, 2014).

Legend:
Assay in all cases: Kinase profiling in a biochemical assay panel (mobility shift assays and ELISA), %-inhibition at 1 μM; selectivity entropy
[1] = molecular target: panel of more than 300 wild-type and mutant kinases (313 kinase panel) (Homo sapiens, UniProt Q15375)
[2] = molecular target: panel of more than 300 wild-type and mutant kinases (313 kinase panel) (Homo sapiens, UniProt P57059)
[3] = molecular target: panel of more than 300 wild-type and mutant kinases (313 kinase panel) (Homo sapiens, UniProt P22694)
[4] = molecular target: T1, panel of more than 300 wild-type and mutant kinases (313 kinase panel) (Homo sapiens, UniProt Q96KB5)
T1 sequence (Q96KB5 1-322): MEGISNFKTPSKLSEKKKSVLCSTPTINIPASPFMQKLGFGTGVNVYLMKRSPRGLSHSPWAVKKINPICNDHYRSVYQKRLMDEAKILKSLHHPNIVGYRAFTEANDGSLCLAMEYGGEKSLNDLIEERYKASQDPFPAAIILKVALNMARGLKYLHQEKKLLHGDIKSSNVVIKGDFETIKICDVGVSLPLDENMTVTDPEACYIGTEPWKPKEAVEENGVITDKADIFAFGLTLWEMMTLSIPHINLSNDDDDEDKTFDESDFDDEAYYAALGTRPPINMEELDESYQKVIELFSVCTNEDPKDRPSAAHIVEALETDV

[5] = molecular target: T2, panel of more than 300 wild-type and mutant kinases (313 kinase panel) (Homo sapiens, UniProt P51955)
T2 sequence (P51955 1-445): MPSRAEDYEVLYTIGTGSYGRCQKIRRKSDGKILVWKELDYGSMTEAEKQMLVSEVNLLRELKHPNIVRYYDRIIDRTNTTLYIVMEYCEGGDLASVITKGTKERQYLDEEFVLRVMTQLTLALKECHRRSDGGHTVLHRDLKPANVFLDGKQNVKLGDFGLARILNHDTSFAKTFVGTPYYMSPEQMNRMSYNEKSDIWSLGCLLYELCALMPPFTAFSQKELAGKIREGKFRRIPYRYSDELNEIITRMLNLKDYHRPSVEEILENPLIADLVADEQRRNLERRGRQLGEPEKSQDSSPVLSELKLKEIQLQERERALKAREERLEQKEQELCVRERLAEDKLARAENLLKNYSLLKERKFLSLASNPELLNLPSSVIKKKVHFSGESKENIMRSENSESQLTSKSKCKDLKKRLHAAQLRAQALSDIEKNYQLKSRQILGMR

[6] = molecular target: panel of more than 300 wild-type and mutant kinases (313 kinase panel) (Homo sapiens, UniProt P19525)
[7] = molecular target: panel of more than 300 wild-type and mutant kinases (313 kinase panel) (Homo sapiens, UniProt Q9H2G2)
[8] = molecular target: T3, panel of more than 300 wild-type and mutant kinases (313 kinase panel) (Homo sapiens, UniProt P45985)
T3 sequence (P45985 1-399): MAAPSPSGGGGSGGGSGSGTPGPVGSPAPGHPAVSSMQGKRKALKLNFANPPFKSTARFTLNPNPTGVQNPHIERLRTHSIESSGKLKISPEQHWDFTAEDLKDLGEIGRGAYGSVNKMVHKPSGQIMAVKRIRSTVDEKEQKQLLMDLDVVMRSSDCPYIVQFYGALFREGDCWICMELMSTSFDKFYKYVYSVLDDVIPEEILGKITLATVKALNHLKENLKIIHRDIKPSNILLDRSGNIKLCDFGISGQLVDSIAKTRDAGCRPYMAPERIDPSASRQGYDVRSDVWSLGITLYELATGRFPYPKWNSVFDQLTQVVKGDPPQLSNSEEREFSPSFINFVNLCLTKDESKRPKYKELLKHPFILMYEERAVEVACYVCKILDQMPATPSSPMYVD

[9] = kinase MAP2K4, compound at 1 μM

Sequence of panel of more than 300 wild-type and mutant kinases (313 kinase panel) (Homo sapiens, UniProt Q15375) (Q15375 28-998, change not shown): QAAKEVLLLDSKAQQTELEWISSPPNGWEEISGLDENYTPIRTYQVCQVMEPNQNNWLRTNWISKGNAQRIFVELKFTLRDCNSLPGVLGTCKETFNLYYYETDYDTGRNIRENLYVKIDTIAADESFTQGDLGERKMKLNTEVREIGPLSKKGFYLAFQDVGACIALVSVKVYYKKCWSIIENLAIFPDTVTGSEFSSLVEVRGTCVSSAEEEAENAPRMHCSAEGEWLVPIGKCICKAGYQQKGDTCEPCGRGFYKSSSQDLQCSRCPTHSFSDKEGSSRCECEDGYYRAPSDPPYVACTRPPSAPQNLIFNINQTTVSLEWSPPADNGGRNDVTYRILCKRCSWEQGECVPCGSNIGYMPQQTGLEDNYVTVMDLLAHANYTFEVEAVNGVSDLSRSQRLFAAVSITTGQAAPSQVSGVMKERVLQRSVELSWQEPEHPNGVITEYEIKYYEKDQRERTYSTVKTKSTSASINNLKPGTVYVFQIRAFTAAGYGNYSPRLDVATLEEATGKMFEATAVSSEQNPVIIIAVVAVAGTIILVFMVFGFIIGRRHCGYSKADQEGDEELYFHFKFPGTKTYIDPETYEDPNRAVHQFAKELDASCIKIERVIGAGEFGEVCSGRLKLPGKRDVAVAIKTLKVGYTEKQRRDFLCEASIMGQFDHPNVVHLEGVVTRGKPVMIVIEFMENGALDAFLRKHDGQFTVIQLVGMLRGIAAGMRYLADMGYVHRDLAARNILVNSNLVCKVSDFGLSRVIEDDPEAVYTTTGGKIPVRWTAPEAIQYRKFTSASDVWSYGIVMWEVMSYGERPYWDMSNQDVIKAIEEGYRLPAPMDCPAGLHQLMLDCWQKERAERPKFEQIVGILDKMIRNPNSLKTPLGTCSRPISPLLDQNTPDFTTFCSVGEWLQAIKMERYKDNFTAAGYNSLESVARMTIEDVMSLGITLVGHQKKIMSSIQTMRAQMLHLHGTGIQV

SMILES | %-inhibition of EPHA7 ([1]; kinase EPHA7, compound at 1 μM) | %-inhibition of SIK ([2]; kinase SIK, 1 μM) | %-inhibition of PKACβ ([3]; kinase PKACβ, 1 μM) | %-inhibition of PBK ([4]; kinase PBK, 1 μM) | %-inhibition of NEK2 ([5]; kinase NEK2, 1 μM) | %-inhibition of PKR ([6]; kinase PKR, 1 μM) | %-inhibition of SLK ([7]; kinase SLK, 1 μM) | %-inhibition of MAP2K4 [8, 9] | %-inhibition of PKACβ ([3]; 1 µM) | %-inhibition of EPHA7 ([1]; 1 µM) | %-inhibition of SIK ([2]; 1 µM) | %-inhibition of PBK ([4]; 1 µM) | %-inhibition of NEK2 ([5]; 1 µM) | %-inhibition of PKR ([6]; 1 µM) | %-inhibition of SLK ([7]; 1 µM) | %-inhibition of MAP2K4 ([8]; 1 µM)
CO[C@H]1C[C@@H]2CC[C@@H](C)[C@@](O)(O2)C(=O)C(=O)N2CCCC[C@H]2C(=O)O[C@H]([C@H](C)C[C@@H]2CC[C@@H](OCCO)[C@H](OC)C2)CC(=O)[C@H](C)/C=C(\C)[C@@H](O)[C@@H](OC)C(=O)[C@H](C)C[C@H](C)/C=C/C=C/C=C/1C [everolimus] | -4% | -5.51% | -6% | -10% | -7% | -8.45% | -2.67% | 1.55% | – | – | – | – | – | – | – | –
CC(=O)Nc1cccc(-n2c(=O)n(C3CC3)c(=O)c3c(Nc4ccc(I)cc4F)n(C)c(=O)c(C)c32)c1 [trametinib] | -5% | -3% | -5% | -3.79% | 2.76% | 1.13% | -2.6% | 2.18% | – | – | – | – | – | – | – | –
CN(C)C/C=C/C(=O)Nc1cc2c(Nc3ccc(F)c(Cl)c3)ncnc2cc1O[C@H]1CCOC1 [afatinib] | – | – | – | -3% | – | – | – | – | – | – | – | – | – | – | – | –
O=S(=O)(c1cccc2cnccc12)N1CCCNCC1 [fasudil] | -5% | -0.948% | – | -2.33% | -1% | -4.39% | 4.5% | -5% | – | – | – | – | – | – | – | –
N#CC[C@H](C1CCCC1)n1cc(-c2ncnc3[nH]ccc23)cn1 [ruxolitinib] | 7.51% | 22% | – | -19% | -4% | -6% | 7% | 10% | 39% | – | – | – | – | – | – | –
COc1cc2nccc(Oc3ccc(NC(=O)C4(C(=O)Nc5ccc(F)cc5)CC4)cc3)c2cc1OC [cabozantinib] | 99% | 6% | -4.25% | -4.29% | -0.384% | -4.3% | 52% | -0.379% | – | – | – | – | – | – | – | –
CC(C)(C)c1nc(-c2cccc(NS(=O)(=O)c3c(F)cccc3F)c2F)c(-c2ccnc(N)n2)s1 [dabrafenib] | 13% | 100% | – | 12% | – | – | 12% | -3% | – | – | – | – | – | – | – | –
C[C@@H](Oc1cc(-c2cnn(C3CCNCC3)c2)cnc1N)c1c(Cl)ccc(F)c1Cl [crizotinib] | – | 26% | -2.3% | -14% | -2.69% | 6% | – | -1.24% | – | – | – | – | – | – | – | –
CCCS(=O)(=O)Nc1ccc(F)c(C(=O)c2c[nH]c3ncc(-c4ccc(Cl)cc4)cc23)c1F [vemurafenib] | -0.639% | 24% | 2.66% | -12% | -1% | -0.765% | 43% | – | – | – | – | – | – | – | – | –
COc1cc2c(Nc3ccc(Br)cc3F)ncnc2cc1OCC1CCN(C)CC1 [vandetanib] | 81% | 70% | -0.0886% | -21% | -7.42% | -1.09% | 90% | -2.77% | – | – | – | – | – | – | – | –
C#Cc1cccc(Nc2ncnc3cc(OCCOC)c(OCCOC)cc23)c1 [erlotinib] | – | – | – | – | – | – | – | – | -3% | 46% | 8% | 4.3% | -0.556% | 22% | 89% | -6%
CNC(=O)c1cc(Oc2ccc(NC(=O)Nc3ccc(Cl)c(C(F)(F)F)c3)c(F)c2)ccn1 [regorafenib] | 84% | 0.674% | -0.531% | -29% | -6.65% | -4.48% | 29% | 0.434% | – | – | – | – | – | – | – | –
Cc1ccc(C(=O)Nc2ccc(CN3CCN(C)CC3)c(C(F)(F)F)c2)cc1C#Cc1cnc2cccnn12 [ponatinib] | – | 96% | – | -14% | – | 19% | – | – | – | – | – | – | – | – | – | –
Cc1ccc(Nc2nccc(N(C)c3ccc4c(C)n(C)nc4c3)n2)cc1S(N)(=O)=O [pazopanib] | 12% | 19% | 0.211% | -5% | 27% | – | 28% | – | – | – | – | – | – | – | – | –
Cc1nc(Nc2ncc(C(=O)Nc3c(C)cccc3Cl)s2)cc(N2CCN(CCO)CC2)n1 [dasatinib] | – | – | -1.68% | – | – | 3% | – | -3.71% | – | – | – | – | – | – | – | –
COc1cc(Nc2c(C#N)cnc3cc(OCCCN4CCN(C)CC4)c(OC)cc23)c(Cl)cc1Cl [bosutinib] | – | 100% | 52% | -24% | – | -13% | – | – | – | – | – | – | – | – | – | –
